Among the data in patent publication US9790536B2, “Methods for assaying alpha-L-iduronidase enzymatic activity” (University of Washington, priority 2007, dated 2017) are Km values, retold here.

In this assay the target is T1, α-L-iduronidase (IdA; EC 3.2.1.76) (Homo sapiens, UniProt P35475).
T1 construct: Incubation with IdA present in DBS leads to enzymatic release of the iduronyl group; from tissue; host or cells: dried blood spot (DBS) extract, 3-mm punch
T1 sequence (P35475 28-653): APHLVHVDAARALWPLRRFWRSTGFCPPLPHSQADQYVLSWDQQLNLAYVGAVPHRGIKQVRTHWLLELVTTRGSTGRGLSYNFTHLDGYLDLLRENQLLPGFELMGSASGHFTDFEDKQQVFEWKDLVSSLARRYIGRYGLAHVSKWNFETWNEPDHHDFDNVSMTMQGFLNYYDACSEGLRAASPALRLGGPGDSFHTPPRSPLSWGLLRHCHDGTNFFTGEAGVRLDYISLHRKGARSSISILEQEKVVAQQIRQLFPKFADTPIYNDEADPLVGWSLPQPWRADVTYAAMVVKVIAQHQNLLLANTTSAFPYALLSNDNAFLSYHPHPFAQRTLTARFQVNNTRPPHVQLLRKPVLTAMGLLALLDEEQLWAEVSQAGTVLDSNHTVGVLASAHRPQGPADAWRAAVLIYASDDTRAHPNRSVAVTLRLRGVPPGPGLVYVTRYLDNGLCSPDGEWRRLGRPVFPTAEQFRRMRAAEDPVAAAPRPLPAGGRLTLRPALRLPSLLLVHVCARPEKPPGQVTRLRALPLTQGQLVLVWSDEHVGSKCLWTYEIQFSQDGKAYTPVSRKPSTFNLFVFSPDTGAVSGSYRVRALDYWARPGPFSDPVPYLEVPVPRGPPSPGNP
Description: ESI-MSMS assay of α-L-iduronidase enzymatic activity in dried blood spots (IdA-P formed as a function of IdA-S concentration). Format: biochemical. The note with it: IdA in DBS extract; 37° C., 20 h; IdA-S 0 to 0.67 mmol/L; fit to Michaelis-Menten equation (FIG. 7). Here is the method:
A representative method of the invention for assaying α-L-iduronidase enzymatic activity by tandem mass spectrometry is described in Example 3. […] The amount of IdA-P increases linearly with incubation time from 0 to 30 h (FIG. 6); 20 h was chosen as the standard incubation time for the assay described in Example 3. The amount of IdA-P formed at 20 h increased in a hyperbolic fashion as the concentration of IdA-S increased from 0 to 0.67 mmol/L, and Km was determined to be 0.2 mmol/L (FIG. 7). An IdA-S concentration of 0.5 mmol/L was chosen in order to be under saturation conditions. The amount of IdA-P increases with the surface area of added DBS (FIG. 8), with a plateau reached at higher blood amounts (presumably due to the presence of endogenous inhibitors in the DBS). In one embodiment, the method uses a 3-mm-DBS punch.
A single 3-mm diameter DBS (containing ˜3.6 μL of blood) was obtained with a leather punch and was placed in a 1-mL Eppendorf tube. Extraction buffer [160 μL of 0.1 mol/L sodium formate pH 3.4 containing 75 μmol/L D-saccharic acid 1,4-lactone (Sigma); storage at −20° C.] was added to the tube. […]
Extraction of IdA-P and IdA-IS from the enzymatic reaction and blank was performed by addition of 250 μL of ethyl acetate. […] The sample was analyzed within the first 45 seconds of infusion, and after 1 min, the MSMS signal has returned to the background level. […]

Regarding `CC(C)(C)OC(=O)NCCCCNC(=O)Cc1cc(=O)oc2cc(O[C@@H]3O[C@@H](C(=O)O)[C@@H](O)[C@H](O)[C@H]3O)ccc12` [IdA-S, (N-[4″-(tert-butoxycarbonylamino)-butyl]) 7-O-(α-L-idopyranosyluronic acid)coumarin-4-acetamide], the Km (commonly the concentration of substrate that gives half-maximal velocity) stood at 200 µM.
